{"source": "ChEMBL document CHEMBL1833969", "about": "“Synthesis and antigastric ulcer activity of novel 5-isoproyl-3,8-dimethylazulene derivatives” (2011)", "type_in_all_cases": "functional", "conditions_in_all_cases": "Stomach", "key": {"Mus musculus [1]": {"test_system": "Mus musculus", "assay": "Antiulcerogenic activity in Kunming mouse assessed as inhibition of ethanol-induced gastric ulcer at 4.3 mg/kg, po qd for 5 days measured 1 hr post last dose relative to control"}, "Mus musculus [2]": {"test_system": "Mus musculus", "assay": "Antiulcerogenic activity in Kunming mouse assessed as inhibition of ethanol-induced gastric ulcer at 4.1 mg/kg, po qd for 5 days measured 1 hr post last dose relative to control"}, "Mus musculus [3]": {"test_system": "Mus musculus", "assay": "Antiulcerogenic activity in Kunming mouse assessed as inhibition of ethanol-induced gastric ulcer at 3.2 mg/kg, po qd for 5 days measured 1 hr post last dose relative to control"}, "Mus musculus [4]": {"test_system": "Mus musculus", "assay": "Antiulcerogenic activity in Kunming mouse assessed as inhibition of ethanol-induced gastric ulcer at 4 mg/kg, po qd for 5 days measured 1 hr post last dose relative to control"}, "Mus musculus [5]": {"test_system": "Mus musculus", "assay": "Antiulcerogenic activity in Kunming mouse assessed as inhibition of ethanol-induced gastric ulcer at 3.3 mg/kg, po qd for 5 days measured 1 hr post last dose relative to control"}, "Mus musculus [6]": {"test_system": "Mus musculus", "assay": "Antiulcerogenic activity in Kunming mouse assessed as inhibition of ethanol-induced gastric ulcer at 3.7 mg/kg, po qd for 5 days measured 1 hr post last dose relative to control"}, "Mus musculus [7]": {"test_system": "Mus musculus", "assay": "Antiulcerogenic activity in Kunming mouse assessed as inhibition of ethanol-induced gastric ulcer at 3.1 mg/kg, po qd for 5 days measured 1 hr post last dose relative to control"}, "Mus musculus [8]": {"test_system": "Mus musculus", "assay": "Antiulcerogenic activity in Kunming mouse assessed as inhibition of ethanol-induced gastric ulcer at 3.6 mg/kg, po qd for 5 days measured 1 hr post last dose relative to control"}, "Mus musculus [9]": {"test_system": "Mus musculus", "assay": "Antiulcerogenic activity in Kunming mouse assessed as inhibition of ethanol-induced gastric ulcer at 3.9 mg/kg, po qd for 5 days measured 1 hr post last dose relative to control"}, "Mus musculus [10]": {"test_system": "Mus musculus", "assay": "Antiulcerogenic activity in Kunming mouse assessed as inhibition of ethanol-induced gastric ulcer at 4.6 mg/kg, po qd for 5 days measured 1 hr post last dose relative to control"}, "Mus musculus [11]": {"test_system": "Mus musculus", "assay": "Antiulcerogenic activity in Kunming mouse assessed as inhibition of ethanol-induced gastric ulcer at 4.7 mg/kg, po qd for 5 days measured 1 hr post last dose relative to control"}, "Mus musculus [12]": {"test_system": "Mus musculus", "assay": "Antiulcerogenic activity in Kunming mouse assessed as inhibition of ethanol-induced gastric ulcer at 4.5 mg/kg, po qd for 5 days measured 1 hr post last dose relative to control"}, "Mus musculus [13]": {"test_system": "Mus musculus", "assay": "Antiulcerogenic activity in Kunming mouse assessed as inhibition of ethanol-induced gastric ulcer at 13.4 mg/kg, po qd for 5 days measured 1 hr post last dose relative to control"}, "Mus musculus [14]": {"test_system": "Mus musculus", "assay": "Antiulcerogenic activity in Kunming mouse assessed as inhibition of ethanol-induced gastric ulcer at 3 mg/kg, po qd for 5 days measured 1 hr post last dose relative to control"}}, "data": [{"smiles": "Cc1cc(S(=O)(=O)Nc2cccc(Br)c2)c2c(C)ccc(C(C)C)cc1-2", "values": [{"measurement": "inhibition in vivo at 4.3 mg/kg", "setting": "Mus musculus [1]", "value": 51.3, "unit": "%"}]}, {"smiles": "COc1ccc(NS(=O)(=O)c2cc(C)c3cc(C(C)C)ccc(C)c2-3)c(OC)c1", "values": [{"measurement": "inhibition in vivo at 4.1 mg/kg", "setting": "Mus musculus [2]", "value": 52.8, "unit": "%"}]}, {"smiles": "Cc1cc(S(=O)(=O)NC(C)C)c2c(C)ccc(C(C)C)cc1-2", "values": [{"measurement": "inhibition in vivo at 3.2 mg/kg", "setting": "Mus musculus [3]", "value": 18.7, "unit": "%"}]}, {"smiles": "Cc1cc(S(=O)(=O)Nc2cccc3ccccc23)c2c(C)ccc(C(C)C)cc1-2", "values": [{"measurement": "inhibition in vivo at 4 mg/kg", "setting": "Mus musculus [4]", "value": 50.5, "unit": "%"}]}, {"smiles": "Cc1cc(S(=O)(=O)NCC(C)C)c2c(C)ccc(C(C)C)cc1-2", "values": [{"measurement": "inhibition in vivo at 3.3 mg/kg", "setting": "Mus musculus [5]", "value": 33.9, "unit": "%"}]}, {"smiles": "CCCNS(=O)(=O)c1cc(C)c2cc(C(C)C)ccc(C)c1-2", "values": [{"measurement": "inhibition in vivo at 3.2 mg/kg", "setting": "Mus musculus [3]", "value": 33, "unit": "%"}]}, {"smiles": "Cc1ccc(NS(=O)(=O)c2cc(C)c3cc(C(C)C)ccc(C)c2-3)cc1", "values": [{"measurement": "inhibition in vivo at 3.7 mg/kg", "setting": "Mus musculus [6]", "value": 23.1, "unit": "%"}]}, {"smiles": "CCNS(=O)(=O)c1cc(C)c2cc(C(C)C)ccc(C)c1-2", "values": [{"measurement": "inhibition in vivo at 3.1 mg/kg", "setting": "Mus musculus [7]", "value": 24.1, "unit": "%"}]}, {"smiles": "Cc1cc(S(=O)(=O)NC2CCCCC2)c2c(C)ccc(C(C)C)cc1-2", "values": [{"measurement": "inhibition in vivo at 3.6 mg/kg", "setting": "Mus musculus [8]", "value": 50.9, "unit": "%"}]}, {"smiles": "Cc1cc(S(=O)(=O)NCc2ccccc2)c2c(C)ccc(C(C)C)cc1-2", "values": [{"measurement": "inhibition in vivo at 3.7 mg/kg", "setting": "Mus musculus [6]", "value": 2.46, "unit": "%"}]}, {"smiles": "Cc1cc(S(=O)(=O)Nc2ccc(Cl)cc2)c2c(C)ccc(C(C)C)cc1-2", "values": [{"measurement": "inhibition in vivo at 3.9 mg/kg", "setting": "Mus musculus [9]", "value": 24.8, "unit": "%"}]}, {"smiles": "Cc1cc(S(=O)(=O)Nc2ccc(N)cc2)c2c(C)ccc(C(C)C)cc1-2", "values": [{"measurement": "inhibition in vivo at 3.1 mg/kg", "setting": "Mus musculus [7]", "value": 45.2, "unit": "%"}]}, {"smiles": "Cc1cc(S(=O)(=O)Nc2ccc(/N=C/c3ccccc3)cc2)c2c(C)ccc(C(C)C)cc1-2", "values": [{"measurement": "inhibition in vivo at 4.6 mg/kg", "setting": "Mus musculus [10]", "value": 17.1, "unit": "%"}]}, {"smiles": "Cc1cc(S(=O)(=O)Nc2ccc(/N=C/c3ccccc3O)cc2)c2c(C)ccc(C(C)C)cc1-2", "values": [{"measurement": "inhibition in vivo at 4.7 mg/kg", "setting": "Mus musculus [11]", "value": 28.7, "unit": "%"}]}, {"smiles": "Cc1cc(S(=O)(=O)Nc2ccc(/N=C/c3cccs3)cc2)c2c(C)ccc(C(C)C)cc1-2", "values": [{"measurement": "inhibition in vivo at 4.6 mg/kg", "setting": "Mus musculus [10]", "value": 50.2, "unit": "%"}]}, {"smiles": "COc1ccc(/C=N\\NS(=O)(=O)c2cc(C)c3cc(C(C)C)ccc(C)c2-3)cc1", "values": [{"measurement": "inhibition in vivo at 4.1 mg/kg", "setting": "Mus musculus [2]", "value": 4.08, "unit": "%"}]}, {"smiles": "Cc1cc(S(=O)(=O)N/N=C\\c2ccc(C(F)(F)F)cc2)c2c(C)ccc(C(C)C)cc1-2", "values": [{"measurement": "inhibition in vivo at 4.5 mg/kg", "setting": "Mus musculus [12]", "value": 24.8, "unit": "%"}]}, {"smiles": "Cc1cc(S(=O)(=O)N/N=C\\c2ccccc2O)c2c(C)ccc(C(C)C)cc1-2", "values": [{"measurement": "inhibition in vivo at 4 mg/kg", "setting": "Mus musculus [4]", "value": 12.2, "unit": "%"}]}, {"smiles": "Cc1cc(S(=O)(=O)N/N=C\\c2cccs2)c2c(C)ccc(C(C)C)cc1-2", "values": [{"measurement": "inhibition in vivo at 3.9 mg/kg", "setting": "Mus musculus [9]", "value": 30.7, "unit": "%"}]}, {"smiles": "COc1ccc2[nH]c([S+]([O-])Cc3ncc(C)c(OC)c3C)nc2c1", "note": "(stereo unspecified) [OMEPRAZOLE]", "values": [{"measurement": "inhibition in vivo at 13.4 mg/kg", "setting": "Mus musculus [13]", "value": 36.7, "unit": "%"}]}, {"smiles": "Cc1cc(S(=O)(=O)O)c2c(C)ccc(C(C)C)cc1-2", "note": "[SODIUM GUALENATE]", "values": [{"measurement": "inhibition in vivo at 3 mg/kg", "setting": "Mus musculus [14]", "value": 32.6, "unit": "%"}]}]}
